Test results from US20040162221A1, “Pyrazole derivatives and herbicides containing the same” (IDEMITSU KOSAN CO., LTD., priority 1998, published 2004).

Assays:
[1] = test system: velvetleaf; assay: Upland pre-emergence treatment test, velvetleaf; format: in vivo, velvetleaf (Abutilon theophrasti); details: pre-emergence soil surface spray, 80 g/ha, 20th day after treatment, greenhouse
From the text: (§1) 97 Parts by weight of talc (trade name: Zeaklite, supplied by Zeaklite Industry) as a carrier, 1.5 parts by weight of alkylarylsulfonic acid salt (trade name: Neoplex, supplied by Kao-Atlas K.K.) as a surfactant and 1.5 parts by weight of a nonionic and anionic surfactant (trade names Sorpol 800A, supplied by Toho Chemical Co., Ltd.) were uniformly pulverized and mixed to prepare a carrier for a wettable powder.
(§2) 90 Parts by weight of the above carrier for a wettable powder and 10 parts by weight of one of the compounds of the present invention were uniformly pulverized and mixed to obtain herbicides. Further, in Comparative Herbicide Examples, comparative herbicides were also prepared from the following compounds (A) and (B) in the same manner.
(§3) Herbicidal efficacy and phytotoxicity to crops were determined on the basis of the ratio of remaining plant weight to plant weight in non-treated plot=(remaining plant weight in treated plot/plant weight in non-treated-plot)×100. The ratings were applied to the following biological tests.
(§4) Seeds of weeds such as velvetleaf, common lambsquaters, redroot pigweed, common ragweed, green foxtail and large crabgrass and seeds of corn were sown in 1/5,000-are Wagner pots filled with upland soil, and covered with upland soil. Then, a predetermined amount of the herbicide prepared in the above (1) was suspended in water, and the suspension was uniformly sprayed onto the soil surface at a rate of 2,000 liters/hectare. Then, the seeds were grown in a greenhouse, and on the 20th day after the treatment, the herbicide was evaluated for herbicidal efficacy and phytotoxicity to corn on the basis of the ratings shown in (2).

[2] = test system: common lambsquaters; assay: Upland pre-emergence treatment test, common lambsquaters; format: in vivo, common lambsquaters (Chenopodium album); details: pre-emergence soil surface spray, 80 g/ha, 20th day after treatment, greenhouse
From the text: as §1, §2, §3, §4

[3] = test system: redroot pigweed; assay: Upland pre-emergence treatment test, redroot pigweed; format: in vivo, redroot pigweed (Amaranthus retroflexus); details: pre-emergence soil surface spray, 80 g/ha, 20th day after treatment, greenhouse
From the text: as §1, §2, §3, §4

[4] = test system: common ragweed; assay: Upland pre-emergence treatment test, common ragweed; format: in vivo, common ragweed (Ambrosia artemisilfolia); details: pre-emergence soil surface spray, 80 g/ha, 20th day after treatment, greenhouse
From the text: as §1, §2, §3, §4

[5] = test system: green foxtail; assay: Upland pre-emergence treatment test, green foxtail; format: in vivo, green foxtail (Setaria viridis); details: pre-emergence soil surface spray, 80 g/ha, 20th day after treatment, greenhouse
From the text: as §1, §2, §3, §4

[6] = test system: large crabgrass; assay: Upland pre-emergence treatment test, large crabgrass; format: in vivo; details: pre-emergence soil surface spray, 80 g/ha, 20th day after treatment, greenhouse
From the text: as §1, §2, §3, §4

[7] = test system: corn; assay: Upland pre-emergence treatment test, phytotoxicity to corn; format: in vivo; details: pre-emergence soil surface spray, 80 g/ha, 20th day after treatment, greenhouse
From the text: as §1, §2, §3, §4

[8] = test system: velvetleaf; assay: Upland post-emergence treatment test, velvetleaf; format: in vivo, velvetleaf (Abutilon theophrasti); details: post-emergence spray at 3-4 leaf stage, 80 g/ha, 30th day after treatment, greenhouse
From the text: as §1, §2, §3
(§5) Seeds of weeds velvetleaf, redroot pigweed, common ragweed, green foxtail and large crabgrass and seeds of corn were sown in 1/5,000-are Wagner pots filled with upland soil, and covered with upland soil. The seeds were grown in a greenhouse, and at the stage of 3˜4 leaves of these plants, a predetermined amount of the herbicide prepared in the above (1) was suspended in water, and the suspension was uniformly sprayed onto leaf and stalk portions at a rate of 2,000 liters/hectare. Then, the plants were grown in the greenhouse, and on the 30th day after the treatment, the herbicide was evaluated for herbicidal efficacy and phytotoxicity to the corn on the basis of the ratings shown in (2).

[9] = test system: redroot pigweed; assay: Upland post-emergence treatment test, redroot pigweed; format: in vivo, redroot pigweed (Amaranthus retroflexus); details: post-emergence spray at 3-4 leaf stage, 80 g/ha, 30th day after treatment, greenhouse
From the text: as §1, §2, §3, §5

[10] = test system: common ragweed; assay: Upland post-emergence treatment test, common ragweed; format: in vivo, common ragweed (Ambrosia artemisilfolia); details: post-emergence spray at 3-4 leaf stage, 80 g/ha, 30th day after treatment, greenhouse
From the text: as §1, §2, §3, §5

[11] = test system: green foxtail; assay: Upland post-emergence treatment test, green foxtail; format: in vivo, green foxtail (Setaria viridis); details: post-emergence spray at 3-4 leaf stage, 80 g/ha, 30th day after treatment, greenhouse
From the text: as §1, §2, §3, §5

[12] = test system: large crabgrass; assay: Upland post-emergence treatment test, large crabgrass; format: in vivo; details: post-emergence spray at 3-4 leaf stage, 80 g/ha, 30th day after treatment, greenhouse
From the text: as §1, §2, §3, §5

[13] = test system: corn; assay: Upland post-emergence treatment test, phytotoxicity to corn; format: in vivo; details: post-emergence spray at 3-4 leaf stage, 80 g/ha, 30th day after treatment, greenhouse
From the text: as §1, §2, §3, §5
Note: ranges in brackets are in %.

Cc1c(C(=O)c2cnn(C)c2OS(C)(=O)=O)ccc2c1C(C)(C)CS2(=O)=O [Compound 2]
Herbicidal Efficacy AA = Velvetleaf [1]: 5 (0)
Herbicidal Efficacy BB = Common lambsquaters [2]: 5 (0)
Herbicidal Efficacy CC = Rough Pigweed [3]: 5 (0)
Herbicidal Efficacy DD = Common ragweed [4]: 5 (0)
Herbicidal Efficacy EE = Green foxtail [5]: 5 (0)
Herbicidal Efficacy FF = Large crabgrass [6]: 5 (0)
Phytotoxicity Corn [7]: − (100)
Herbicidal Efficacy AA = Velvetleaf [8]: 5 (0)
Herbicidal Efficacy CC = Redroot Pigweed [9]: 5 (0)
Herbicidal Efficacy DD = Common ragweed [10]: 5 (0)
Herbicidal Efficacy EE = Green foxtail [11]: 5 (0)
Herbicidal Efficacy FF = Large crabgrass [12]: 5 (0)
Phytotoxicity Corn [13]: − (100)

Cc1ccc(S(=O)(=O)Oc2c(C(=O)c3ccc4c(c3C)C(C)(C)CS4(=O)=O)cnn2C)cc1 [Compound 18]
Herbicidal Efficacy AA = Velvetleaf [1]: 5 (0)
Herbicidal Efficacy BB = Common lambsquaters [2]: 5 (0)
Herbicidal Efficacy CC = Rough Pigweed [3]: 5 (0)
Herbicidal Efficacy DD = Common ragweed [4]: 4 (1-20)
Herbicidal Efficacy EE = Green foxtail [5]: 5 (0)
Herbicidal Efficacy FF = Large crabgrass [6]: 5 (0)
Phytotoxicity Corn [7]: − (100)
Herbicidal Efficacy AA = Velvetleaf [8]: 5 (0)
Herbicidal Efficacy CC = Redroot Pigweed [9]: 5 (0)
Herbicidal Efficacy DD = Common ragweed [10]: 5 (0)
Herbicidal Efficacy EE = Green foxtail [11]: 5 (0)
Herbicidal Efficacy FF = Large crabgrass [12]: 5 (0)
Phytotoxicity Corn [13]: − (100)

CCN(CC)CC.Cc1c(C(=O)c2cnn(C)c2O)ccc2c1C(C)(C)CS2(=O)=O [Compound 50, 5-(1′-methyl-5′-hydroxypyrazol-4′-yl)carbonyl-3,3,4-trimethyl-2,3-dihydrobenzothiophene-1,1-dioxide triethylamine salt]
Herbicidal Efficacy AA = Velvetleaf [1]: 5 (0)
Herbicidal Efficacy BB = Common lambsquaters [2]: 5 (0)
Herbicidal Efficacy CC = Rough Pigweed [3]: 5 (0)
Herbicidal Efficacy DD = Common ragweed [4]: 4 (1-20)
Herbicidal Efficacy EE = Green foxtail [5]: 5 (0)
Herbicidal Efficacy FF = Large crabgrass [6]: 5 (0)
Phytotoxicity Corn [7]: − (100)
Herbicidal Efficacy AA = Velvetleaf [8]: 5 (0)
Herbicidal Efficacy CC = Redroot Pigweed [9]: 5 (0)
Herbicidal Efficacy DD = Common ragweed [10]: 5 (0)
Herbicidal Efficacy EE = Green foxtail [11]: 5 (0)
Herbicidal Efficacy FF = Large crabgrass [12]: 5 (0)
Phytotoxicity Corn [13]: − (100)

Cc1c(C(=O)c2cnn(C)c2OC(=O)C2CCCCC2)ccc2c1C(C)(C)CS2(=O)=O [Compound 37]
Herbicidal Efficacy AA = Velvetleaf [1]: 5 (0)
Herbicidal Efficacy BB = Common lambsquaters [2]: 5 (0)
Herbicidal Efficacy CC = Rough Pigweed [3]: 5 (0)
Herbicidal Efficacy DD = Common ragweed [4]: 5 (0)
Herbicidal Efficacy EE = Green foxtail [5]: 5 (0)
Herbicidal Efficacy FF = Large crabgrass [6]: 5 (0)
Phytotoxicity Corn [7]: − (100)
Herbicidal Efficacy AA = Velvetleaf [8]: 5 (0)
Herbicidal Efficacy CC = Redroot Pigweed [9]: 5 (0)
Herbicidal Efficacy DD = Common ragweed [10]: 5 (0)
Herbicidal Efficacy EE = Green foxtail [11]: 5 (0)
Herbicidal Efficacy FF = Large crabgrass [12]: 5 (0)
Phytotoxicity Corn [13]: − (100)

Cc1c(C(=O)c2cnn(C)c2O)ccc2c1C(C)(C)CS2(=O)=O [Compound 1, 5-(1′-methyl-5′-hydroxypyrazol-4′-yl)carbonyl-3,3,4-trimethyl-2,3-dihydrobenzothiophene-1,1-dioxide]
Herbicidal Efficacy AA = Velvetleaf [1]: 5 (0)
Herbicidal Efficacy BB = Common lambsquaters [2]: 5 (0)
Herbicidal Efficacy CC = Rough Pigweed [3]: 5 (0)
Herbicidal Efficacy DD = Common ragweed [4]: 5 (0)
Herbicidal Efficacy EE = Green foxtail [5]: 5 (0)
Herbicidal Efficacy FF = Large crabgrass [6]: 5 (0)
Phytotoxicity Corn [7]: − (100)
Herbicidal Efficacy AA = Velvetleaf [8]: 5 (0)
Herbicidal Efficacy CC = Redroot Pigweed [9]: 5 (0)
Herbicidal Efficacy DD = Common ragweed [10]: 5 (0)
Herbicidal Efficacy EE = Green foxtail [11]: 5 (0)
Herbicidal Efficacy FF = Large crabgrass [12]: 5 (0)
Phytotoxicity Corn [13]: − (100)

CCCS(=O)(=O)Oc1c(C(=O)c2ccc3c(c2C)C(C)(C)CS3(=O)=O)cnn1C [Compound 4, 5-(1′-methyl-5′-n-propanesulfonyloxypyrazol-4′-yl)carbonyl-3,3,4-trimethyl-2,3-dihydrobenzothiophene-1,1-dioxide]
Herbicidal Efficacy AA = Velvetleaf [1]: 5 (0)
Herbicidal Efficacy BB = Common lambsquaters [2]: 5 (0)
Herbicidal Efficacy CC = Rough Pigweed [3]: 5 (0)
Herbicidal Efficacy DD = Common ragweed [4]: 5 (0)
Herbicidal Efficacy EE = Green foxtail [5]: 5 (0)
Herbicidal Efficacy FF = Large crabgrass [6]: 5 (0)
Phytotoxicity Corn [7]: − (100)
Herbicidal Efficacy AA = Velvetleaf [8]: 5 (0)
Herbicidal Efficacy CC = Redroot Pigweed [9]: 5 (0)
Herbicidal Efficacy DD = Common ragweed [10]: 5 (0)
Herbicidal Efficacy EE = Green foxtail [11]: 5 (0)
Herbicidal Efficacy FF = Large crabgrass [12]: 5 (0)
Phytotoxicity Corn [13]: − (100)

Cc1c(C(=O)c2cnn(C)c2O)ccc2c1C(C)(C)CS2(=O)=O.[Na] [Compound 52, 5-(1′-methyl-5′-hydroxypyrazol-4′-yl)carbonyl-3,3,4-trimethyl-2,3-dihdyrobenzothiophene-1,1-dioxide sodium salt]
Herbicidal Efficacy AA = Velvetleaf [1]: 4 (1-20)
Herbicidal Efficacy BB = Common lambsquaters [2]: 5 (0)
Herbicidal Efficacy CC = Rough Pigweed [3]: 5 (0)
Herbicidal Efficacy DD = Common ragweed [4]: 4 (1-20)
Herbicidal Efficacy EE = Green foxtail [5]: 4 (1-20)
Herbicidal Efficacy FF = Large crabgrass [6]: 5 (0)
Phytotoxicity Corn [7]: − (100)
Herbicidal Efficacy AA = Velvetleaf [8]: 5 (0)
Herbicidal Efficacy CC = Redroot Pigweed [9]: 5 (0)
Herbicidal Efficacy DD = Common ragweed [10]: 5 (0)
Herbicidal Efficacy EE = Green foxtail [11]: 5 (0)
Herbicidal Efficacy FF = Large crabgrass [12]: 5 (0)
Phytotoxicity Corn [13]: − (100)

Cc1c(C(=O)c2cnn(C)c2OCC(=O)c2ccccc2)ccc2c1C(C)(C)CS2(=O)=O [Compound 49, 5-(1′-methyl-5′-phenacyloxypyrazol-4′-yl)carbonyl-3,3,4-trimethyl-2,3-dihydrobenzothiophene-1,1-dioxide]
Herbicidal Efficacy AA = Velvetleaf [1]: 5 (0)
Herbicidal Efficacy BB = Common lambsquaters [2]: 5 (0)
Herbicidal Efficacy CC = Rough Pigweed [3]: 5 (0)
Herbicidal Efficacy DD = Common ragweed [4]: 5 (0)
Herbicidal Efficacy EE = Green foxtail [5]: 5 (0)
Herbicidal Efficacy FF = Large crabgrass [6]: 5 (0)
Phytotoxicity Corn [7]: − (100)
Herbicidal Efficacy AA = Velvetleaf [8]: 5 (0)
Herbicidal Efficacy CC = Redroot Pigweed [9]: 5 (0)
Herbicidal Efficacy DD = Common ragweed [10]: 5 (0)
Herbicidal Efficacy EE = Green foxtail [11]: 5 (0)
Herbicidal Efficacy FF = Large crabgrass [12]: 5 (0)
Phytotoxicity Corn [13]: − (100)
